Entries after “also recorded” stand apart in the source; their conditions may differ.
Experiments:
[1] = Clinical ophthalmic examination in monkeys (vitreal cell scores, anterior chamber inflammation); assay type: in vivo, cynomolgus monkeys (Macaca fascicularis); conditions: for Vitreal cell score: number of eyes with grade 0 / Vitreal cell score: number of eyes with grade 1 / Vitreal cell score: number of eyes with grade 2 / Vitreal cell score: number of eyes with grade 3 / Vitreal cell score: number of eyes with grade 4 / Vitreal cell score: number of eyes with grade Trace: intravitreal days 1 and 15, cells not distinguishable from dispersed drug
Experimental: Once the phase Ib study was completed, and it was established that the drug suspension in oil would not interfere with either laser administration, evaluation of CNV or cause adverse effects, phase II was initiated. On days 1, and 15 both eyes of monkeys received 50 μL of Lucentis (0.5 mg/eye), vehicle (0 mg/eye), BOL-303050-X (1.5 mg/eye), BOL-303054-X (1.5 mg/eye) or BOL-303055-X (1.5 mg/eye) (Table 2). Intravitreous injection was performed for each by eye aiming towards mid-vitreous body. Dosing in the right eye was alternated for successive doses (as applicable) at approximately the 11 o'clock and 10 o'clock positions. Dosing in the left eye was alternated for successive doses (as applicable) from approximately the 1 o'clock and 2 o'clock positions.
Animals were examined at baseline, on days 1, 3, 7, 15, and 31 of Dosing Phase II and on the day of scheduled sacrifice (day 38). On days of dose administration the ophthalmic examination was done prior to dosing.

[2] = test system: laser-induced CNV in rats; test: Laser-induced choroidal neovascularization in rats (CNV area, fluorescein angiography grades); assay type: in vivo, Brown Norway rats; conditions: day 14, 200 μg/eye (echistatin 5 μg, Avastin 125 μg); for CNV area / development of CNV on isolectin IB4-labeled flat mounts compared to vehicle-treated controls / Mean score of fluorescein leakage (FA score) compared to vehicle-treated controls: one intravitreal injection after laser; for Number of lesions in FA grade 1 / Number of lesions in FA grade 2 / Number of lesions in FA grade 3 / Number of lesions in FA grade 4: unobstructed lesions
Experimental: Fifty six male Brown Norway rats, approximately 200-300 grams of body weight and two months of age, were used in this study. This study was performed in two cohorts and only one eye of each rat was used.
The pupils were dilated and then the rats were anesthetized as described in baseline examination. The rats were positioned in front of a slit lamp system (Haag-Streit USA, Mason, Ohio). […] A diode laser (OcuLight TX, IRIDEX, Mountain View, Calif.) was used for photocoagulation (532 nm wavelength, 120 mW power, 50 μm spot size and 0.05 seconds duration). For each right eye, a series of six photocoagulation sites were concentrically placed between the major retinal vessels at equal distance (about two optic discs) around the optic nerve head. […] If a significant retinal or subretinal hemorrhage occurred during the laser photocoagulation, then the left eye was be photocoagulated and used as the experimental eye.
Grade 1 lesions had no hyperfluorescence.
The eyes were collected on day 14 and immediately fixed in 4% paraformaldehyde in PBS (pH 7.4) for one and half hours, and then transferred into cold PBS and kept at 4° C. for further processing.
The incubation was performed in a humidified dark chamber with gentle rotation at 4° C. overnight. On the second day, the retinal pigment epithelium (RPE)-choroidsclera complexes were washed with cold IHC buffer, mounted with ProLong® Gold antifade reagent, covered with circular cover glass, and sealed with clear nail polish. Fluorescent images were collected with a confocal microscope (FluoView FV 1000 confocal microscope, Olympus, Center Valley, Pa.) and a 4×, 0.16 numerical aperture objective lens. […] The laser sites were identified by merging images of the green (phalloidin labeling RPE) and the red (isolectin IB4 labeling CNV) channels. CNV complexes were identified using the red channel (isolectin), and their areas were quantified using the FluoView software (Version 1.7a).
Average FA scores and areas of CNV complexes in each group were presented as mean±SEM, unless otherwise indicated. They were analyzed using a one-way ANOVA followed by a Tukey-Kramer test after Box-Cox transformations. All statistics were performed utilizing the statistical analysis software JMP (SAS Institute, Cary, N.C.). p values ≦0.05 were considered statistically significant.

Compound | Vitreal cell score: number of eyes with grade 0 ([1]; Day 3) | Vitreal cell score: number of eyes with grade 1 ([1]; Day 3) | Vitreal cell score: number of eyes with grade 2 ([1]; Day 3) | Vitreal cell score: number of eyes with grade 3 ([1]; Day 3) | Vitreal cell score: number of eyes with grade 4 ([1]; Day 3) | Vitreal cell score: number of eyes with grade Trace ([1]; Day 3) | Vitreal cell score: number of eyes with grade 0 ([1]; Day 7) | Vitreal cell score: number of eyes with grade 1 ([1]; Day 7) | Vitreal cell score: number of eyes with grade 2 ([1]; Day 7) | Vitreal cell score: number of eyes with grade 3 ([1]; Day 7) | Vitreal cell score: number of eyes with grade 4 ([1]; Day 7) | Vitreal cell score: number of eyes with grade Trace ([1]; Day 7) | Vitreal cell score: number of eyes with grade 0 ([1]; Day 15) | Vitreal cell score: number of eyes with grade 1 ([1]; Day 15) | Vitreal cell score: number of eyes with grade 2 ([1]; Day 15) | Vitreal cell score: number of eyes with grade 3 ([1]; Day 15) | Vitreal cell score: number of eyes with grade 4 ([1]; Day 15) | Vitreal cell score: number of eyes with grade Trace ([1]; Day 15) | Number of lesions in FA grade 2 [2] | Number of lesions in FA grade 4 [2] | also measured
CCc1nc(NC[C@H](NC(=O)OCc2ccccc2)C(=O)O)c(C)c(N2CCC(c3ccc4c(n3)NCCC4)CC2)n1 [BOL-303055-X] | 11 | 1 | 0 | 0 | 0 | 6 | 0 | 3 | 6 | 3 | 1 | 5 | 0 | 7 | 3 | 1 | 3 | 4 | 3 | 1 | Vitreal cell score: number of eyes with grade 0 ([1]; Day 31): 5; Vitreal cell score: number of eyes with grade 1 ([1]; Day 31): 2; Vitreal cell score: number of eyes with grade 2 ([1]; Day 31): 4; Vitreal cell score: number of eyes with grade 3 ([1]; Day 31): 0; Vitreal cell score: number of eyes with grade 4 ([1]; Day 31): 0; Vitreal cell score: number of eyes with grade Trace ([1]; Day 31): 7; Vitreal cell score: number of eyes with grade 0 ([1]; Day 38): 6; Vitreal cell score: number of eyes with grade 1 ([1]; Day 38): 5; Vitreal cell score: number of eyes with grade 2 ([1]; Day 38): 0; Vitreal cell score: number of eyes with grade 3 ([1]; Day 38): 0; Vitreal cell score: number of eyes with grade 4 ([1]; Day 38): 0; Vitreal cell score: number of eyes with grade Trace ([1]; Day 38): 7; CNV area / development of CNV on isolectin IB4-labeled flat mounts compared to vehicle-treated controls [2]: smaller area of CNV; Mean score of fluorescein leakage (FA score) compared to vehicle-treated controls [2]: smaller means; Number of lesions in FA grade 1 [2]: 0; Number of lesions in FA grade 3 [2]: 2
bevacizumab [Avastin, reference compound] |  |  |  |  |  |  |  |  |  |  |  |  |  |  |  |  |  |  | 7 | 15 | CNV area / development of CNV on isolectin IB4-labeled flat mounts compared to vehicle-treated controls [2]: did not inhibit the development of CNV; Mean score of fluorescein leakage (FA score) compared to vehicle-treated controls [2]: smaller means
COc1ccc(S(=O)(=O)N[C@@H](CNc2nc(C)nc(N3CCC(c4ccc5c(n4)NCCC5)CC3)c2C)C(=O)O)cc1 [BOL-303050-X] | 8 | 5 | 0 | 0 | 1 | 4 | 1 | 4 | 6 | 2 | 5 | 0 | 1 | 8 | 2 | 1 | 4 | 2 | 12 | 2 | Vitreal cell score: number of eyes with grade 0 ([1]; Day 31): 0; Vitreal cell score: number of eyes with grade 1 ([1]; Day 31): 2; Vitreal cell score: number of eyes with grade 2 ([1]; Day 31): 1; Vitreal cell score: number of eyes with grade 3 ([1]; Day 31): 1; Vitreal cell score: number of eyes with grade 4 ([1]; Day 31): 11; Vitreal cell score: number of eyes with grade Trace ([1]; Day 31): 0; Vitreal cell score: number of eyes with grade 0 ([1]; Day 38): 0; Vitreal cell score: number of eyes with grade 1 ([1]; Day 38): 1; Vitreal cell score: number of eyes with grade 2 ([1]; Day 38): 0; Vitreal cell score: number of eyes with grade 3 ([1]; Day 38): 3; Vitreal cell score: number of eyes with grade 4 ([1]; Day 38): 12; Vitreal cell score: number of eyes with grade Trace ([1]; Day 38): 0; Drug-related ocular findings ([1]; oil formulation, 1.5 mg/eye intravitreal): No drug-related ocular findings were reported; CNV area / development of CNV on isolectin IB4-labeled flat mounts compared to vehicle-treated controls [2]: completely inhibited in a small portion of lesions; also recorded: smaller area of CNV; Mean score of fluorescein leakage (FA score) compared to vehicle-treated controls [2]: smaller means; Number of lesions in FA grade 1 [2]: 6; Number of lesions in FA grade 3 [2]: 4
COc1c(NC[C@H](NC(=O)OCc2ccccc2)C(=O)O)ncnc1N1CCC(c2ccc3c(n2)NCCC3)CC1 [BOL-303054-X] | 9 | 1 | 1 | 0 | 0 | 5 | 2 | 2 | 2 | 4 | 6 | 2 | 0 | 6 | 2 | 0 | 8 | 0 | 0 | 1 | Vitreal cell score: number of eyes with grade 0 ([1]; Day 31): 0; Vitreal cell score: number of eyes with grade 1 ([1]; Day 31): 1; Vitreal cell score: number of eyes with grade 2 ([1]; Day 31): 8; Vitreal cell score: number of eyes with grade 3 ([1]; Day 31): 2; Vitreal cell score: number of eyes with grade 4 ([1]; Day 31): 6; Vitreal cell score: number of eyes with grade Trace ([1]; Day 31): 1; Vitreal cell score: number of eyes with grade 0 ([1]; Day 38): 0; Vitreal cell score: number of eyes with grade 1 ([1]; Day 38): 0; Vitreal cell score: number of eyes with grade 2 ([1]; Day 38): 3; Vitreal cell score: number of eyes with grade 3 ([1]; Day 38): 2; Vitreal cell score: number of eyes with grade 4 ([1]; Day 38): 13; Vitreal cell score: number of eyes with grade Trace ([1]; Day 38): 0; Anterior chamber inflammation ([1]; left eye of one monkey that developed endophthalmitis on day 29, until day 38): Moderate anterior chamber inflammation; Number of lesions in FA grade 1 [2]: 0; Number of lesions in FA grade 3 [2]: 5

From patent US20110189174A1, “COMPOSITIONS AND METHODS FOR TREATING, REDUCING, AMELIORATING, ALLEVIATING, OR INHIBITING PROGRESSION OF, PATHOGENIC OCULAR NEOVASCULARIZATION” (priority 2010, published 2011)
